Data as given in patent US20070197619A1, “Ion Channel Modulators” (priority 2004, published 2007).

Tested on: calcium channel (e.g., L-type, N-type, etc.)
Experiment: HEK assay, whole-cell patch clamp of transiently transfected HEK-293T/17 cells
Format: cell-based
Conditions: whole-cell voltage clamp, holding potential −100 mV
Description: HEK-293T/17 cells are transiently transfected in a similar manner as described in FuGENE 6 Package Insert Version 7, April 2002, Roche Applied Science, Indianapolis, Ind. The cells are plated at 2.5×10^5 cells in 2 mL in a 6-well plate in incubator for one night and achieve a 30˜40% confluence. In a small sterile tube, add sufficient serum-free medium as diluent for FuGENE Transfection Reagent (Roche Applied Science, Indianapolis, Ind.), to a total volume of 100 μL. Add 3 μL of FuGENE 6 Reagent directly into this medium. The mixture is tapped gently to mix. 2 μg of DNA solution (0.8-2.0 μg/μL) is added to the prediluted FuGENE 6 Reagent from above. The DNA/Fugene 6 mixture is gently pipeted to mix the contents and incubated for about 15 minutes at room temperature. The complex mixture is then added to the HEK-293T/17 cells, distributing it around the well, and swirled to ensure even dispersal. The cells are returned to the incubator for 24 hrs. The transfected cells are then replated at density 2.5×10^5 in a 35 mm dish with 5 glass coverslips and grow in low serum (1%) media for 24 hrs. Coverslips with isolated cells are then transferred into chamber and calcium channel (e.g., L-type, N-type, etc.) current or other currents for counter screening are recorded from the transiently transfected HEK-293T/17 cells. […]

IC50 | SMILES
2690 nM | CN(Cc1nc(CN2CCCC2)cn1-c1ccc(Cl)cc1)c1ccc(F)cc1 [Compound 6]
135 nM | CN(Cc1nc(CNc2ccc(F)cc2)cn1-c1ccc(Cl)cc1)c1ccc(F)cc1 [Compound 5]
